Laboratory results published in US20240277740A1, “TREATMENT OF KNOWN AND UNKNOWN VIRAL INFECTION WITH LIPID AGENTS” (Viratides, LLC, priority 2020, published 2024).
In brackets after ≈: the same amount, converted by molar mass. Several values for one entry are separate records, joined by “and”; a condition that tells them apart may be missing. Equal entries are not always repeated. Where two headings read alike, the source gives them in different places.

Legend:
uninfected Vero E6 cells = conditions: for Viability of Uninfected Vero E6 Cells: 4-day treatment, mean ± s.d. of duplicates; for Viability of Uninfected Vero E6 Cells (A540): 4 days, raw duplicates
[1] = test system: SARS-CoV-2 (MEX-BC2/2020); test: Live SARS-CoV-2 CPE-based antiviral assay in Vero E6 cells (neutral red); assay type: cell-based

For C[S+](C)[O-] [DMSO, reference compound], the “block of cell viability” value (uninfected Vero E6 cells; tested at 10%) was “more than 95%”.
In the case of CCCCCCCC/C=C\CCCCCCCCCCCCCC(=O)N[C@@H](CO[C@@H]1O[C@H](CO)[C@H](O)[C@H](OS(=O)(=O)O)[C@H]1O)[C@H](O)/C=C/CCCCCCCCCCCCC [Sulfatide 24:1, C24:1 3′-sulfo Galactosylceramide (d18:1/24:1(15Z))], the CC50 (uninfected Vero E6 cells) is reported as over 100 µg/mL, the “cytotoxicity in viability assay (in words)” value (uninfected Vero E6 cells) is reported as “dose-dependent trend of cytotoxicity” and the “Viability of Uninfected Vero E6 Cells” value (uninfected Vero E6 cells; 0.78 μg/mL) is reported as 89.8 ± 5.8 % vehicle. The “Viability of Uninfected Vero E6 Cells (A540)” value (shortened to “Viability … (A540)”) (uninfected Vero E6 cells; 0.78 μg/mL) was 0.457 and 0.424, the “Viability of Uninfected Vero E6 Cells” value (uninfected Vero E6 cells; 1.6 μg/mL) was 99.3 ± 1.4 % vehicle and the “Viability … (A540)” value (uninfected Vero E6 cells; 1.6 μg/mL) was 0.495 and 0.487. For the same molecule, the “Viability of Uninfected Vero E6 Cells” value (uninfected Vero E6 cells; 3.1 μg/mL) was 97.3 ± 1.4 % vehicle, the “Viability … (A540)” value (uninfected Vero E6 cells; 3.1 μg/mL) was 0.487 and 0.479 and the “Viability of Uninfected Vero E6 Cells” value (uninfected Vero E6 cells; 6.25 μg/mL) was 95.7 ± 2.3 % vehicle. The “Viability … (A540)” value (uninfected Vero E6 cells; 6.25 μg/mL) was 0.483 and 0.470, the “Viability of Uninfected Vero E6 Cells” value (uninfected Vero E6 cells; 12.5 μg/mL) was 95.6 ± 3.5 % vehicle and the “Viability … (A540)” value (uninfected Vero E6 cells; 12.5 μg/mL) was 0.486 and 0.466. The “Viability of Uninfected Vero E6 Cells” value (uninfected Vero E6 cells; 25 μg/mL) was 85.8 ± 11.0 % vehicle, the “Viability … (A540)” value (uninfected Vero E6 cells; 25 μg/mL) was 0.468 and 0.405 and the “Viability of Uninfected Vero E6 Cells” value (uninfected Vero E6 cells; 50 μg/mL) was 73.7 ± 13.1 % vehicle. For the same molecule, the “Viability … (A540)” value (uninfected Vero E6 cells; 50 μg/mL) was 0.425 and 0.350, the “Viability of Uninfected Vero E6 Cells” value (uninfected Vero E6 cells; 100 μg/mL) was 63.8 ± 7.9 % vehicle and the “Viability … (A540)” value (uninfected Vero E6 cells; 100 μg/mL) was 0.370 and 0.325. For the same molecule, the “Inhibition of SARS-CoV-2 (MEX-BC2/2020) Virus-Induced CPE” value (“Inhibition” for short) ([1]; 0.78 μg/mL, average ± s.d. of duplicates) was −3.4 ± 0.6 % mock, the “Raw OD - Absorbance (540 nm), infected cells” value (“Raw OD - Absorbance (540 nm)” for short) ([1]; 0.78 μg/mL, duplicates) was 0.121 and 0.118 and the “Inhibition” value ([1]; 1.6 μg/mL, average ± s.d. of duplicates) was −1.7 ± 4.1 % mock. For the same molecule, the “Raw OD - Absorbance (540 nm)” value ([1]; 1.6 μg/mL, duplicates) was 0.137 and 0.115, the “Inhibition” value ([1]; 3.1 μg/mL, average ± s.d. of duplicates) was −3.6 ± 1.1 % mock and the “Raw OD - Absorbance (540 nm)” value ([1]; 3.1 μg/mL, duplicates) was 0.122 and 0.116. The “Inhibition” value ([1]; 6.25 μg/mL, average ± s.d. of duplicates) was −3.8 ± 1.1 % mock, the “Raw OD - Absorbance (540 nm)” value ([1]; 6.25 μg/mL, duplicates) was 0.115 and 0.121 and the “Inhibition” value ([1]; 12.5 μg/mL, average ± s.d. of duplicates) was 1.3 ± 3.9 % mock. The “Raw OD - Absorbance (540 nm)” value ([1]; 12.5 μg/mL, duplicates) was 0.127 and 0.18, the “Inhibition” value ([1]; 25 μg/mL, average ± s.d. of duplicates) was 1.9 ± 2.2 % mock and the “Raw OD - Absorbance (540 nm)” value ([1]; 25 μg/mL, duplicates) was 0.134 and 0.146. For the same molecule, the “Inhibition” value ([1]; 50 μg/mL, average ± s.d. of duplicates) was 21.6 ± 13.0 % mock, the “Raw OD - Absorbance (540 nm)” value ([1]; 50 μg/mL, duplicates) was 0.180 and 0.250 and the “Inhibition” value ([1]; 100 μg/mL, average ± s.d. of duplicates) was 61.3 ± 8.5 % mock. For the same molecule, the “Raw OD - Absorbance (540 nm)” value ([1]; 100 μg/mL, duplicates) was 0.390 and 0.344, the “IC50 (antiviral)” value ([1]; Vero E6, 96 h, neutral red) was 84.9 µg/mL (≈ 95.4 µM) and the “prevention of virus-induced CPE (in words)” value ([1]; at the two highest concentrations tested, 50 μg/mL and 100 μg/mL) was “prevented the virus-induced cytopathic effect (CPE) in a dose-dependent manner”.
For N#C[C@@]1(c2ccc3c(N)ncnn23)O[C@H](CO)[C@@H](O)[C@H]1O [GS-441524, reference compound], the “Inhibition” value ([1]; 0.03 μM, single data point) was 0.09 % mock, the “Inhibition” value ([1]; 0.08 μM, single data point) was 1.1 % mock and the “Inhibition” value ([1]; 0.25 μM, single data point) was 16.1 % mock. The “Raw OD - Absorbance (540 nm)” value ([1]; 0.25 μM, single data point) was 0.194, the “Inhibition” value ([1]; 0.74 μM, single data point) was 134.9 % mock and the “Raw OD - Absorbance (540 nm)” value ([1]; 0.74 μM, single data point) was 0.648. For the same molecule, the “Inhibition” value ([1]; 1 μM) was 110.2 % mock, the “Raw OD - Absorbance (540 nm)” value ([1]; 1 μM) was 0.554 and 0.553 and the “Inhibition” value ([1]; 6.7 μM, single data point) was 116.6 % mock. For the same molecule, the “Raw OD - Absorbance (540 nm)” value ([1]; 6.7 μM, single data point) was 0.578, the “Inhibition” value ([1]; 10 μM) was 100.0 % mock and the “Raw OD - Absorbance (540 nm)” value ([1]; 10 μM) was 0.507 and 0.522. The IC50 ([1]; Severe acute respiratory syndrome coronavirus 2, Vero C1008, Vero E6, 96 h, estimated by GraphPad Prism, R2 = 0.977) was about 280 nM, the “concentrations at which virus-induced CPE was completely prevented” value ([1]; Vero E6) was at least 0.74 µM and the “prevention of virus-induced CPE by control inhibitor (in words)” value ([1]; quality control of infectivity assay) was “prevented completely the virus-induced CPE”.
